Measured values taken from patent US8153165B2, “Preparation and use for reducing the damaging effect of ammonia on organisms living in water” (Tetra GmbH, priority 2006, dated 2012).

Columns and labels:
[1] = system: types of fish common in aquariums (acute toxicity of ammonia); experiment: Behavior of aquarium fish in water with 1000 μmol/l of total ammonia, with and without preparation; type: in vivo; settings: for reduction of the acute toxicity of ammonia in water animals, in particular ornamental fish: in vivo
From the text: In aquariums holding 50 liters, the aquarium water was set to the following values:
Metered addition of a NH4Cl solution set to pH 8.2 predetermined a total ammonia concentration of 1000 μmol/l.
The aquariums were stocked with types of fish common in aquariums: • Xiphosphorus maculatus • Brachydanio rerio • Paracheirodon innesi • Rasbora heteromorpha • Colisa lalia • Papiliochromis ramirezi • Melanochromis splendida • Megalamphodus sweglesi • Corydoras spec
Only about 30% of the test fish behaved normal. […] The behavioral pattern observed persisted over 48-72 h, i.e. 2-3 days.
In the following tables, the average values of the behavior of all types of fish are represented averaged depending on the time and dose of glyoxal.2NaHSO3: (Comparison: control with 1000 μmol/l of total ammonia without treatment)

[2] = system: fish and other water organisms; experiment: Compatibility of the adduct alone; type: in vivo
Procedure: The adduct alone is very well compatible for fish and other water organisms up to high concentrations of 140 mg/l.

[3] = Stability of liquid product formulations; type: physicochemical; settings: extended pH range between pH 3 and 9
[4] = Chemical changes in the keeping water (pH, carbonate hardness); type: physicochemical
From the text: The positive effect may originate from the preparation itself, wherein, for example glyoxal.2NaHSO3 acts as a protecting agent in the gill area. The second possibility is an indirect effect by influencing the water chemistry, which again results in a shift of the NH3/NH4^+ equilibrium. Glyoxal-2NaHSO3 causes two different chemical changes in the keeping water:
1. pH reduction by up to 0.5 units, which persists considerably longer than with state of the art preparations and products, for example a reduction by 0.3 pH units up to 72 hours following the dose.
2. […] This surprising chemical behavior, too, is not found with state of the art products or preparations.

[5] = NH3 concentration ranges common in keeping water; cited from earlier work

SMILES: O=S(=O)([O-])C(O)CCCC(O)S(=O)(=O)[O-].[Na+].[Na+] (centres unmarked) [NaHSO3 bisadduct of glutardialdehyde]
- reduction of the acute toxicity of ammonia in water animals, in particular ornamental fish [1]: especially effective

SMILES: O=S(=O)([O-])C(O)CC(O)S(=O)(=O)[O-].[Na+].[Na+] (centres unmarked) [NaHSO3 bisadduct of malondialdehyde]
- reduction of the acute toxicity of ammonia in water animals, in particular ornamental fish [1]: show the desired reduction of the acute toxicity of ammonia

SMILES: O=S(=O)([O-])C(O)CCC(O)S(=O)(=O)[O-].[Na+].[Na+] (centres unmarked) [NaHSO3 bisadduct of succindialdehyde]
- reduction of the acute toxicity of ammonia in water animals, in particular ornamental fish [1]: show the desired reduction of the acute toxicity of ammonia

SMILES: O=S(=O)([O-])C(O)CO.[Na+] (centres unmarked) [NaHSO3 monoadduct of glycolaldehyde]
- reduction of the acute toxicity of ammonia in water animals, in particular ornamental fish [1]: show the desired reduction of the acute toxicity of ammonia

SMILES: O=S(=O)([O-])C(O)C(O)S(=O)(=O)[O-].[Na+].[Na+] (centres unmarked) [glyoxal•2NaHSO3, NaHSO3 bisadduct of glyoxal]
- behavior of the test fish following addition of the preparation ([1]; 1000 μmol/l of total ammonia, only about 30% normal without preparation): the majority of the test fish behaved normal and showed no signs of damage by ammonia
- Normal behavior show % of the test fish ([1]; Table A, 35 mg/l single dose, 0 hrs (before dose), 1000 μmol/l total ammonia): 89%
- Normal behavior show % of the test fish ([1]; Table A, 35 mg/l single dose, 2 hrs): 67%
- Normal behavior show % of the test fish ([1]; Table A, 35 mg/l single dose, 5 hrs): 67%
- Normal behavior show % of the test fish ([1]; Table A, 35 mg/l single dose, 9 hrs): 67%
- Normal behavior show % of the test fish ([1]; Table A, 35 mg/l single dose, 23 hrs): 56%
- Normal behavior show % of the test fish ([1]; Table A, 35 mg/l single dose, 29 hrs): 67%
- Normal behavior show % of the test fish ([1]; Table A, 35 mg/l single dose, 46 hrs): 67%
- Normal behavior show % of the test fish ([1]; Table A, 35 mg/l single dose, 54 hrs): 56%
- Normal behavior show % of the test fish ([1]; Table A, 35 mg/l single dose, 72 hrs): 44%
- Normal behavior show % of the test fish ([1]; Table B, 130 mg/l single dose, 0 hrs (before dose), 1000 μmol/l total ammonia): 100%
- Normal behavior show % of the test fish ([1]; Table B, 130 mg/l single dose, 2 hrs): 78%
- Normal behavior show % of the test fish ([1]; Table B, 130 mg/l single dose, 4 hrs): 78%
- Normal behavior show % of the test fish ([1]; Table B, 130 mg/l single dose, 8 hrs): 78%
- Normal behavior show % of the test fish ([1]; Table B, 130 mg/l single dose, 24 hrs): 78%
- Normal behavior show % of the test fish ([1]; Table B, 130 mg/l single dose, 48 hrs): 100%
- Normal behavior show % of the test fish ([1]; Table C, three-time dose 35 mg/l every 72 hours, 0 hrs (before doses)): 100%
- Normal behavior show % of the test fish ([1]; Table C, three-time dose 35 mg/l every 72 hours, 2 hrs): 78%
- Normal behavior show % of the test fish ([1]; Table C, three-time dose 35 mg/l every 72 hours, 4 hrs): 78%
- Normal behavior show % of the test fish ([1]; Table C, three-time dose 35 mg/l every 72 hours, 5 hrs): 78%
- Normal behavior show % of the test fish ([1]; Table C, three-time dose 35 mg/l every 72 hours, 24 hrs): 67%
- Normal behavior show % of the test fish ([1]; Table C, three-time dose 35 mg/l every 72 hours, 72 hrs (before 2nd dose)): 78%
- Normal behavior show % of the test fish ([1]; Table C, three-time dose 35 mg/l every 72 hours, 74 hrs): 67%
- Normal behavior show % of the test fish ([1]; Table C, three-time dose 35 mg/l every 72 hours, 96 hrs): 89%
- Normal behavior show % of the test fish ([1]; Table C, three-time dose 35 mg/l every 72 hours, 5 days after the 3rd dose (i.e. 11 days)): 89%
- Normal behavior show % of the test fish ([1]; Table C, three-time dose 35 mg/l every 72 hours, 120 hrs): 89%
- Normal behavior show % of the test fish ([1]; Table C, three-time dose 35 mg/l every 72 hours, 144 hrs (before 3rd dose)): 89%
- Normal behavior show % of the test fish ([1]; Table C, three-time dose 35 mg/l every 72 hours, 145 hrs): 100%
- Normal behavior show % of the test fish ([1]; Table C, three-time dose 35 mg/l every 72 hours, 168 hrs): 89%
- Normal behavior show % of the test fish ([1]; Table C, three-time dose 35 mg/l every 72 hours, 192 hrs): 100%
- Normal behavior show % of the test fish ([1]; Table D comparison, glyoxal•2NaHSO3 35 mg/l, product doses not given, 0 hrs (before dose)): 89%
- Normal behavior show % of the test fish ([1]; Table D comparison, glyoxal•2NaHSO3 35 mg/l, product doses not given, 2 hrs): 67%
- Normal behavior show % of the test fish ([1]; Table D comparison, glyoxal•2NaHSO3 35 mg/l, product doses not given, 5 hrs): 67%
- Normal behavior show % of the test fish ([1]; Table D comparison, glyoxal•2NaHSO3 35 mg/l, product doses not given, 8.5 hrs): 67%
- Normal behavior show % of the test fish ([1]; Table D comparison, glyoxal•2NaHSO3 35 mg/l, product doses not given, 22.5 hrs): 56%
- Normal behavior show % of the test fish ([1]; Table D comparison, glyoxal•2NaHSO3 35 mg/l, product doses not given, 29 hrs): 67%
- Normal behavior show % of the test fish ([1]; Table D comparison, glyoxal•2NaHSO3 35 mg/l, product doses not given, 46 hrs): 67%
- Normal behavior show % of the test fish ([1]; Table D comparison, glyoxal•2NaHSO3 35 mg/l, product doses not given, 54 hrs): 56%
- Normal behavior show % of the test fish ([1]; Table D comparison, glyoxal•2NaHSO3 35 mg/l, product doses not given, 72 hrs): 44%
- percentage of test fish with normal behavior versus control without treatment ([1]; during the first 48 hours, 35 mg/l and 130 mg/l): significantly higher percentage of the test fish shows normal behavior than in the control test
- reduction of the acute toxicity of ammonia in water animals, in particular ornamental fish [1]: especially effective
- acute toxicity of ammonia to fish ([1]; on addition of 5-140 mg/l, preferably 10-50 mg/l): clearly reduced
- time over which the behavioral pattern observed persisted ([1]; single dose, 1000 μmol/l of total ammonia): 48 to 72 h
- concentration up to which the adduct alone is very well compatible for fish and other water organisms [2]: ≤ 140 µg/mL
- stability of the liquid product formulations [3]: good stability
- time after which the carbonate hardness reduction sets in [4]: about 24 hours
- time the carbonate hardness reduction lasts [4]: up to 72 hours
- Reduction of the carbonate hardness ([4]; keeping water): 0.5-0.60 dH
- pH reduction in the keeping water ([4]; maximum): up to 0.5 units
- pH reduction in the keeping water ([4]; up to 72 hours following the dose): 0.3 pH units

SMILES: O=S(=O)([O-])CO.[Na+] [sodium hydroxymethanesulfonate]
- reduction in the ammonia concentration [5]: Neither a reduction in the ammonia concentration
- reduction of the NH3 toxicity [5]: nor a, however disposed, reduction of the NH3 toxicity could be observed
